The values below come from patent US20240074473A1, “METHOD FOR INDUCING HYPERTROPHIC MUSCLE FIBERS FOR INDUSTRIAL MEAT PRODUCTION” (Yeda Research and Development Co. Ltd., priority 2021, published 2024).

The nature of series [1]: Risk categorization of cell culture media ingredients. The text has this: Category 1: These cell culture media components are food ingredients/additives that are GRAS or permitted by federal regulation without limitation on use. Exemplary compounds in this category include innocuous ingredients such as sugars, pH buffers, water soluble vitamins, and common antioxidants such as tocopherols.
Category 2: These cell culture media components are common dietary nutrients and are anticipated to have GRAS status for food use or be permitted by regulation for addition to food. Examples of such compounds include most of the inorganic salts and macronutrients that are present within the cell culture media. […] Majority of nutrients present within the poultry cell-based meat may be readily measured using common validated methods for food composition testing. Batch analyses of multiple lots of the finished product may be obtained to validate the above assumptions. In some instances, consideration of established safe levels (e.g., ADI, UL) derived from a relevant authoritative body (e.g., U.S. FDA, EFSA, JECFA, FSANZ, U.S. EPA) may be leveraged to support safety. If comparisons of anticipated dietary intakes relative to an authoritative reference intake value is used, consideration of additive intakes from all dietary sources may be considered. In the absence of an authoritative reference intake value, published NOAELs from animal toxicology studies may be used to evaluate safety using standard scientific procedures for food safety evaluation. A margin of exposure (MoE) of 100-fold or greater between the NOAEL and estimated dietary intakes from food exposures is typically considered adequate to support safety. in situations where the MoE is <100-fold, additional measures for further reduction of the media component may be necessary, or further characterization of intraspecies/interspecies differences in metabolism may be necessary. These situations also require careful consideration of the regulatory status on a case-by basis (e.g., premarket approval as a food additive or GRAS evaluation required).
For example, situations where the compound is not detectable in finished product or is present at equivalent levels in comparator foods, compounds that are thermo-labile and will be digested during cooking, and/or compounds that are expected to be digested to innocuous compounds following ingestion. Examples of compounds meeting the aforementioned conditions would include recombinant growth factors and serum components. For Category 3 substances a final consideration in the safety assessment process may involve hazard characterization of the potential for a substance to produce toxic biological effects outside of the endpoints measured in a sub-chronic rat toxicity study. Substances with biological activity may require additional hazard characterization related to reproductive and developmental toxicity, or immunotoxicity. Considerations for allergenicity, biological effects in humans (e.g., effects on blood pressure), and synergistic effects with other media components also may be evaluated. […] Examples of category 3 components include recombinant proteins and animal serum.

The conditions of series [2]: cited from earlier work; for Safe Reference Level for Human Dietary Intake: Iron UL: as iron.
A short description of series [3]: Maximum estimated dietary exposure to media ingredients per 100 g serving. The note with it: assumption of complete transfer of media components to the finished product on a wt/wt basis.
Series [4] concerns primary chicken myoblasts. The series can be described thus: Fusion index of primary chicken myoblasts (MyHC immunostaining). Particulars: primary chicken myoblasts; for Fusion: 48 hours post treatment. The class given is cell-based. As to the method:
Chicken primary derived myoblasts were used as a model to evaluate the efficiency of SCH772984 as the ERKi, compared to conventional differentiation medium (DM) for the purpose of producing muscle (meat) in tissue culture conditions. Chicken myoblasts were isolated from chicken embryos and expanded in proliferation medium. When sufficient cell numbers were acquired, cells were seeded on tissue culture plates and allowed to adhere for 24 hours. Then medium was changed to either PM supplemented with ERKi or DM. At 24-hours post treatment, the cells that received ERKi were replenished with fresh PM (without the addition of more ERKi), and DM treated cells were replenished with fresh DM. Media was replaced daily over a period of 72 hours.
Evaluation of muscle fiber formation was achieved by fixing the cells and staining for expression of Myosin Heavy Chain (FIG. 9A). […] Yet, treatment with conventional DM only began to form fibers beginning at 72-hours post treatment. A fusion index was quantified at 72 hours post treatment (FIG. 9B), in which the percentage of total nuclei present in a myotube (MyHC positive cell with 2 or more nuclei).
Primary chicken myoblast isolation and treatment: chicken myoblasts were isolated from broiler chicken embryos at day 18 from breast and leg muscles by using Trypsin B. Following tissue dissociation, the cell suspension was grown for 3-4 days on 10% Matrigel coated plates. At the first passage, the cells were lifted and pre-plated twice for 30 minutes to enrich for myoblasts and reduce the number of fibroblasts. Then cells were seeded at 8,000/well of optical-96 well plates in proliferation medium. 24 hours after plating, media was aspirated and replaced with the indicated treatment conditions in proliferation media or differentiation media (as indicated). After 24 hours with treatment, the media was aspirated and all wells were replenished with fresh proliferation media or differentiation media without any treatment. This was repeated daily. Cells were fixed at 48 hours after treatment. Compounds were purchased from Cayman Chemicals.
Immunofluorescent staining: Cells were fixed with ice cold 4% PFA in PBS for 10 minutes, permeabilized with 0.5% Triton X-100 in PBS for 6 minutes, and blocked in PBS with 0.025% tween, 10% normal horse serum and 10% normal goat serum for 1 hour at room temperature. Primary antibody incubation was done in blocking buffer overnight at 4 degrees, with the following antibodies: Myosin Heavy Chain (MyHC, MF20, DSHB hybridoma supernatant 1:10, alpha-actinin (SIGMA A7811). Cells were washed 3 times in PBS with 0.025% tween and then incubated with appropriate secondary antibodies in PBS 1 hour. Nuclei were labeled with DAPI (SIGMA D9542, 5 ug/ml). All fusion indexes and imaging analysis were performed on at least 1000 per technical repeat.

The mark [5] stands for this setting: cell culture media ingredient used during meat production.
Setting [6] is: human dietary intake, niacinamide and magnesium sulfate: supplements.

Structures can show the parent of a compound that is named as a salt. Where two headings read alike, the source gives them in different places.

`O.O.O.O.O.O.O.O=S(=O)([O-])[O-].[Zn+2]` [ZINC SULFATE-7H20]: the “Risk Assessment Category” value in series [1] came out at 1. Besides, the “Safe Reference Level for Human Dietary Intake: UL (Tolerable Upper Limit)” value (shortened to “Safe Reference Level … (Tolerable Upper Limit)”) in series [2] (human dietary intake) is on record as “UL = 5 to 40 mg/day”. In series [3], the “Maximum Estimated Exposure per 100 g serving” value is recorded as 15 mg.

For `[Cl-].[Na+]` [SODIUM CHLORIDE], the “Safe Reference Level for Human Dietary Intake (kind of level not given)” value (from here on “Safe Reference Level … (kind of level not given)”) in series [2] (human dietary intake) is 2.3 g/day.

FERRIC CITRATE: the “Safe Reference Level for Human Dietary Intake: Iron UL” value in series [2] (human dietary intake) is recorded as “Iron UL = 40 to 45 mg”.

Consider `O.O=S(=O)([O-])[O-].[Mn+2]` [MANGANESE SULFATE H2O], for which the “Risk Assessment Category” value in series [1] (setting [5]) was determined as 1. Further, in series [2] (human dietary intake), the “Safe Reference Level … (kind of level not given)” value is 0.002 to 0.011 g/day. For the same compound, the “Maximum Estimated Exposure per 100 g serving” value in series [3] was 0.003 mg.

Consider `CCCCCCCC/C=C\CCCCCCCC(=O)OCCOCC(OCCO)C1OCC(OCCO)C1OCCO` (centres unmarked) [TWEEN 80], for which, in series [1] (setting [5]), the “Risk Assessment Category” value is 2. The “Safe Reference Level for Human Dietary Intake: ADI (Acceptable Daily Intake)” value in series [2] (human dietary intake) is listed as “ADI = 10 mg/kg bw/d”. Besides, in series [3], the “Maximum Estimated Exposure per 100 g serving” value is 4 mg.

With `O.O.O.O.O.O.O.O=S(=O)([O-])[O-].[Fe+2]` [FERROUS SULFATE-7H2O], the “Risk Assessment Category” value in series [1] was found to be 2. In addition, in series [2] (human dietary intake), the “Safe Reference Level for Human Dietary Intake: Iron UL” value is on record as “Iron UL = 40 to 45 mg”. The “Maximum Estimated Exposure per 100 g serving” value in series [3] is 2.5 mg.

`Cc1c(C)c2c(c(C)c1O)CC[C@@](C)(CCC[C@H](C)CCC[C@H](C)CCCC(C)C)O2` [D-ALPHA-TOCOPHEROL]: the “Risk Assessment Category” value in series [1] (setting [5]) turned out to be 1. Also, the “Safe Reference Level … (Tolerable Upper Limit)” value in series [2] (human dietary intake) was “UL = 1000 mg/d”. In series [3], the “Maximum Estimated Exposure per 100 g serving” value is reported as 1.6 mg.

Turning to `[Cl-].[Cl-].[Mg+2]` [MAGNESIUM CHLORIDE (ANHY)], the “Risk Assessment Category” value in series [1] (setting [5]) is 1. Moreover, in series [2] (human dietary intake), the “Safe Reference Level … (kind of level not given)” value is 65 to 350 mg. For the same compound, the “Maximum Estimated Exposure per 100 g serving” value in series [3] is 170 mg.

Regarding `CC(=O)Oc1c(C)c(C)c2c(c1C)CCC(C)(CCCC(C)CCCC(C)CCCC(C)C)O2` (racemic) [DL-ALPHA-TOCOPHEROL ACETATE], in series [1] (setting [5]), the “Risk Assessment Category” value stood at 1. Further, the “Safe Reference Level … (Tolerable Upper Limit)” value in series [2] (human dietary intake) is given as “UL = 1000 mg/d”. In addition, in series [3], the “Maximum Estimated Exposure per 100 g serving” value is 8 mg.

As to COPPER SULFATE-PENTAHYDRATE, in series [2] (human dietary intake), the “Safe Reference Level … (kind of level not given)” value is given as 1 to 10 mg. The “Maximum Estimated Exposure per 100 g serving” value in series [3] is given as 3 mg.

In the case of CALCIUM D-PANTOTHENATE, the “Safe Reference Level for Human Dietary Intake (UL) given as symbol” value (shortened to “Safe Reference Level … as symbol”) in series [2] (human dietary intake) is on record as “UL = NS”. Moreover, in series [3], the “Maximum Estimated Exposure per 100 g serving” value is given as 100 mg.

Turning to `CCCCC/C=C\C/C=C\CCCCCCCC(=O)O` [LINOLEIC ACID], the “Risk Assessment Category” value in series [1] stood at 2. In series [2] (human dietary intake), the “Safe Reference Level for Human Dietary Intake: AI (Adequate Intake)” value is recorded as “AI = 7 to 12 g/d”. The “Maximum Estimated Exposure per 100 g serving” value in series [3] was 1 mg.

Take `O=S(=O)([O-])[O-].[Mg+2]` [MAGNESIUM SULFATE (ANHY)]: in series [1] (setting [5]), the “Risk Assessment Category” value was determined as 1. For the same compound, the “Safe Reference Level … (Tolerable Upper Limit)” value in series [2] (setting [6]) is “UL = 65 to 350 mg”. Also, the “Maximum Estimated Exposure per 100 g serving” value in series [3] is recorded as 493 mg.

For the compound `CC(=O)C(=O)[O-].[Na+]` [SODIUM PYRUVATE], the “Risk Assessment Category” value in series [1] (setting [5]) is recorded as 3. For the same compound, in series [2] (dietary intakes within the range of OSL values reported in human investigations), the “Safe Reference Level for Human Dietary Intake, in words” value is on record as “Dietary intakes within”. Moreover, in series [3], the “Maximum Estimated Exposure per 100 g serving” value was 1000 mg.

As to `C=C1CC[C@H](O)C/C1=C/C=C1\CCC[C@]2(C)[C@@H]([C@H](C)/C=C/[C@H](C)C(C)C)CC[C@@H]12` [VITAMIN D2 (ERGOCALCIFEROL), ERGOCALCIFEROL], the “Risk Assessment Category” value in series [1] was found to be 1. Moreover, in series [2] (human dietary intake), the “Safe Reference Level … (Tolerable Upper Limit)” value was “UL = 100 ug/d”. The “Maximum Estimated Exposure per 100 g serving” value in series [3] was 0.024 mg.

For the compound `Cc1ncc(C[n+]2csc(CCO)c2C)c(N)n1` [THIAMINE-HCL], the “Risk Assessment Category” value in series [1] came to 1. In addition, in series [2] (human dietary intake), the “Safe Reference Level … as symbol” value is reported as “UL = NS”. For the same compound, the “Maximum Estimated Exposure per 100 g serving” value in series [3] is given as 18 mg.

Consider `[Cl-].[K+]` [POTASSIUM CHLORIDE], for which the “Risk Assessment Category” value in series [1] (setting [5]) came out at 1. In addition, the “Safe Reference Level … as symbol” value in series [2] (human dietary intake) is “UL = NS”. In addition, the “Maximum Estimated Exposure per 100 g serving” value in series [3] is 4000 mg.

Regarding `Cc1ccc(C(=O)Nc2ccc(S(=O)(=O)O)c3cc(S(=O)(=O)O)cc(S(=O)(=O)O)c23)cc1NC(=O)c1cccc(NC(=O)Nc2cccc(C(=O)Nc3cc(C(=O)Nc4ccc(S(=O)(=O)O)c5cc(S(=O)(=O)O)cc(S(=O)(=O)O)c45)ccc3C)c2)c1` [Suramin], in series [4] (proliferation media, SCH772984 1 uM plus Caffeine 2 mM or Suramin 10 μM, 48 hours), the “Fusion index in combination with ERK inhibitor vs ERK inhibitor alone” value was “significantly increased the fusion index”.

For the compound `N#CC(=C(/N)Sc1ccccc1N)/C(C#N)=C(\N)Sc1ccccc1N` [U0126], the Fusion in series [4] (Differentiation media, 1 uM) is recorded as 29%; in series [4] (Differentiation media, 10 uM), 47%; in series [4] (Proliferation media, 1 uM), 16%; in series [4] (Proliferation media, 10 uM) it was 7%.

On to `NC(=O)c1cccnc1` [NIACINAMIDE (NICOTINAMIDE), NIACINAMIDE], for which, in series [1], the “Risk Assessment Category” value worked out at 1. Moreover, in series [2] (setting [6]), the “Safe Reference Level … (Tolerable Upper Limit)” value is on record as “UL = 10 to 35 mg”. The “Maximum Estimated Exposure per 100 g serving” value in series [3] was 25 mg.

For the compound `[Ca+2].[Cl-].[Cl-]` [CALCIUM CHLORIDE (ANHY)], the “Risk Assessment Category” value in series [1] (setting [5]) is reported as 1. Besides, the “Safe Reference Level … (kind of level not given)” value in series [2] (human dietary intake) is 1 to 3 g/day. For the same compound, in series [3], the “Maximum Estimated Exposure per 100 g serving” value is reported as 760 mg.
